Results: US20210275624A1, “TREATMENTS FOR IMPROVING OR LESSENING IMPAIRMENT OF MITOCHONDRIAL FUNCTION” (priority 2020, published 2021)
Square brackets hold non-standard residues; d marks the D form. Peptide text beside a SMILES is read from it. Cya = N[C@@H](CS(=O)(=O)O)C(=O)O

Key:
human RPE cells [1] = assay: Flow cytometry (Annexin V / 7-AAD) cell death and light-microscopy morphology; type: cell-based
Experimental: Human donor eyes from a donor were obtained within 24 hrs. after death from the North Carolina Organ Donor and Eye Bank, Inc. (Winston-Salem, N.C., USA) in accordance with the provisions of the Declaration of Helsinki for research involving human tissue. Cells were grown in Eagle's minimal essential medium (MEM; Invitrogen) with 10% fetal bovine serum (FBS; Thermo Scientific) and with 1× penicillin/streptomycin (Thermo Scientific) at 37° C. in a humidified environment containing 5% CO2.
(§1) Human donor RPE cells were seeded on collagen-coated 96-well plates, 24-well plates with or without coverslips, 6-well plates (Corning-Costar Incorporated, Corning, N.Y., USA). Except for the Seahorse assay, on day 6 after plating, cells were washed twice with serum-free and phenol red-free MEM (SF-MEM), treated with HQ at a various concentrations in the presence or absence of RSG (0.4 mM) in SF-MEM for various times at 37° C. RSG co-treatment refers to the condition in which cells were treated with RSG in the presence of HQ. Control refers to the condition in which cells were not treated.
RPE cells in triplicate wells of a 6-well plate were treated with HQ (150 μM) in the presence or absence of RSG (0.4 mM) for 12 hours. Cell morphology was recorded by light microscopy, and then cells were detached with 1×TrypLE and centrifuged at 300 g for 5 minutes. Cells were re-suspended with 100 μL 1×Annexin V binding buffer, incubated with 5 μL Annexin V for 10 minutes and then 5 μL 7-AAD was added to the Annexin V mixture and incubated for additional 5 minutes. Cell death was analyzed with flow cytometry.

human RPE cells [2] = assay: F-actin immunofluorescent staining (phalloidin), aggregate quantification; type: cell-based; settings: 6 hours
Experimental: Human donor RPE cells were seeded on collagen-coated 96-well plates, 24-well plates with or without coverslips, 6-well plates (Corning-Costar Incorporated, Corning, N.Y., USA). Except for the Seahorse assay, on day 6 after plating, cells were washed twice with serum-free and phenol red-free MEM (SF-MEM), treated with HQ at a various concentrations in the presence or absence of RSG (0.4 mM) in SF-MEM for various times at 37° C. RSG co-treatment refers to the condition in which cells were treated with RSG in the presence of HQ. Control refers to the condition in which cells were not treated. RPE cells in triplicate wells of a 24-well plate containing collagen-coated coverslips were treated for 6 hours with HQ (140 μM) in the presence or absence of RSG (0.4 mM) and then fixed in 4% paraformaldehyde for 12 minutes at room temperature (RT). Cells were permeabilized with 0.5% Triton X-100 for 12 minutes and incubated for 1 hour at RT with phalloidin-TRITC in 0.5% bovine serum albumin/0.1% Triton X-100/PBS. The percentage of F-actin aggregates was determined by a masked observer. […] For data analysis, segmented images were converted to eight-bit, binary images and F-actin aggregates were quantified using the particle analyzer function (0-infinity size and 0-1 circularity) in Fiji.

human RPE cells [3] = assay: WST assay (mitochondrial dehydrogenase activity / cell viability); type: cell-based; settings: 2.5 hours
Experimental: as §1, with “treated. RPE cells in triplicate wells of a 96-well plate were treated with HQ (150 μM) for 2.5 hours in the presence or absence of RSG (0.4 mM). The medium was removed and cells were incubated with WST-1 solution for 30 minutes at 37° C. A colorimetric assay was performed based on the cleavage of the tetrazolium salt WST-1 by mitochondrial dehydrogenases in viable cells. The plate was read on a spectrophotometer at 440 nm with a reference wavelength at 690 nm.” for “treated.”

HMOX-1 = assay: Real-time RT-PCR (qPCR) of HMOX-1; type: cell-based, human; settings: 4 hours
Experimental: RPE cells in triplicate wells of a 12-well plate were treated with HQ (250 μM) in the presence or absence of RSG (0.4 mM) for 4 hours. Total RNA was isolated using RNeasy Plus Mini Kit according to the manufacturer's specifications and real-time quantitative reverse transcription-polymerase chain reaction (qPCR) was performed as we have described previously. Primer pairs for HMOX-1 and ribosomal protein, large, PO (RPLPO) were as follows (5′ to 3′): HMOX-1, forward: CAG GAG CTG ACC CAT GA; reverse: AGCAACTGTCGCCACCAGAA; RPLPO, forward: GGACATGTTGCTGGCCAATAA; reverse: GGG CCC GAG ACC AGT GTT.

heme oxygenase-1 (HO-1) = assay: Western blot of HO-1; type: cell-based, human; settings: for HO-1 protein level (Western blot): 8 hours
Experimental: RPE cells in triplicate wells of a 6-well plate were treated with HQ (170 μM) in the presence or absence of RSG (0.4 mM) for 8 hours. Total protein were extracted with RIPA buffer supplemented with protease inhibitors and phosphatase inhibitors, quantified with Bradford protein assay, and subjected to SDS-PAGE and Western blot as we have previously described.^21

Oc1ccc(O)cc1 [HQ, hydroquinone, reference compound]
cell morphology (human RPE cells [1]; HQ 150 μM): caused cells to shrivel/detach
cell death (necrosis, apoptosis) (human RPE cells [1]; HQ alone 150 μM, 12 hours): induced primarily necrotic cell death and much less apoptotic cell death
number of F-actin aggregates (human RPE cells [2]; HQ 140 μM, vs control): significantly increased the number of F-actin aggregates
cell viability (WST-1) (human RPE cells [3]; HQ 150 μM): significantly decreased cell viability
HMOX-1 gene level (qPCR) (HMOX-1; HQ 250 μM): significantly up-regulated
HO-1 protein level (Western blot) (heme oxygenase-1 (HO-1); HQ 170 μM): significantly up-regulated

C[C@@H](O)[C@H](NC(=O)[C@H](CS(=O)(=O)O)NC(=O)CNC(=O)[C@H](CCCNC(=N)N)NC(=O)CN)C(=O)N1CCC[C@H]1C(=O)O [Risuteganib, Glycyl-L-arginylglycyl-3-sulfo-L-alanyl-L-threonyl-L-proline] (H-GRG[Cya]TP-OH)
cell morphology (human RPE cells [1]; RSG 0.4 mM co-treatment with HQ 150 μM): improved HQ-induced morphological changes
HQ-induced necrosis and apoptosis (cell death) (human RPE cells [1]; RSG 0.4 mM co-treatment with HQ 150 μM, 12 hours): significantly protected cells from HQ-induced necrosis and apoptosis
number of live and dead cells (human RPE cells [1]; RSG alone 0.4 mM, 12 hours, vs control): little effect
F-actin aggregates (human RPE cells [2]; RSG 0.4 mM co-treatment with HQ 140 μM): significantly inhibited the production of HQ-induced aggregates
cell viability (WST-1, mitochondrial dehydrogenase activity) (human RPE cells [3]; RSG 0.4 mM co-treatment with HQ 150 μM, vs HQ alone): significantly increased cell viability
HMOX-1 gene level (qPCR) (HMOX-1; RSG 0.4 mM co-treatment with HQ 250 μM): further up-regulated
HO-1 protein level (Western blot) (heme oxygenase-1 (HO-1); RSG 0.4 mM co-treatment with HQ 170 μM): further up-regulated
cellular stress and HO-1 activation (heme oxygenase-1 (HO-1); RSG alone): did not induce observable cellular stress and HO-1 activation
